# Assay results from paper PMC10041537, “Molecular origins of mutational spectra produced by the environmental carcinogen N-nitrosodimethylamine and SN1 chemotherapeutic agents” (NAR Cancer, 2023).
# Legend:
# [1] = system: human induced pluripotent stem cells; set-up: method as in PMID 30982602; details: cited from earlier work
# [2] = system: C57BL/6J gptΔ mouse embryonic fibroblasts (MEFs); assay: Duplex sequencing, high-resolution mutational spectra of MEFs treated with alkylating agents; assay type: cell-based; details: for predominant mutation type of mutational spectrum: doses generating no more than 50% growth inhibition; for cosine similarity of mutational spectra: with each other, with NDMA spectra from WT liver and lung, Mgmt-deficient liver, and COSMIC SBS11
# Procedure: C57BL/6J gptΔ mouse embryonic fibroblasts (MEFs) were established and maintained in high glucose, GlutaMAX DMEM (Gibco) supplemented with 10% FBS (VWR Life Sciences), sodium pyruvate (1 mM, Gibco), penicillin (100 IU) and streptomycin (100 μg/ml) (Corning) as previously described ([40]). […] For growth-inhibition assays, 2.5 × 10^4 cells were seeded in 6-well plates and incubated overnight. Cells were treated with SN1 alkylating agents as follows. TMZ (Sigma-Aldrich): 50, 100 and 200 μM (stock solutions in DMSO (Sigma-Aldrich)) in FBS-free complete media for 24 h. STZ (Sigma-Aldrich): 500, 1000 and 2000 μM (stock solutions in 0.1 M citrate buffer, pH 4.5) in HBSS, pH 7.4 for 6 h. MNU (Sigma-Aldrich): 125, 250 and 500 μM (stock solutions in 0.1 M citrate buffer, pH 4.5) in HBSS, pH 7.4 for 1 h. After the treatments, cells were washed in PBS (Gibco) and cultured in complete media for another 48 h. Cell growth was analyzed by determining percentages of cell numbers from treatment and untreated control groups by Coulter counter. For gpt assays, 4 × 10^5 cells were seeded into 15 cm tissue culture dishes (4 dishes per group) and treated with TMZ, STZ and MNU, as described above, at 60–70% confluence. Viable cells were harvested and washed twice in PBS.
# The gptΔ assay as described above was also performed on MEFs derived from the gptΔ mouse (see above) that were treated with the toxicants studied here. For the cell culture studies, genomic DNA from 2 × 10^6 cells per group was prepared using the MegaLong DNA Isolation Kit (G-Biosciences) according to the manufacturer's instructions.
# To determine the identity of mutations and the sequence contexts in which they occur, we utilized a form of error-corrected sequencing called duplex sequencing (DS). Previously, we described how DS can be used directly on genomic samples derived from the gptΔ mouse to yield high-resolution mutational spectra in an unbiased (unselected) manner ([49]). Unlike the traditional gptΔ assay, DS evaluates the mutations throughout the entire 6382 bp transgenic region (which contains the gpt gene), without the need for a phenotypic selection. In the present work, 6.4 kb gpt-containing plasmids from gptΔ mouse livers and cell culture were isolated using a Miniprep Kit (Qiagen) following instructions of the manufacturer. Approximately 6 μg of plasmid DNA was diluted in 1× TE buffer-low EDTA, pH 8 (Thermo Scientific), transferred to a microTUBE AFA Fiber Pre-Slit Snap-Cap (Covaris) and sonicated using a Covaris E220 Focused-ultrasonicator. The following program was used to obtain 300–350 bp fragments: peak incident power = 140 W, duty factor = 10%, cycles per burst = 200, treatment time = 80 s, temperature = 4–7°C. DS libraries for gptΔ C57BL/6J mice and MEFs were prepared using the NEBNext Ultra II DNA Library Prep (E7103, NEB) or as described in Chawanthayatham et al. ([49]) and sequenced on a NextSeq500 or NovaSeq 6000 Illumina platform by using a 150 bp paired-end protocol (MIT BioMicro Center). DS libraries for the gptΔ mouse lungs and Mgmt^−/− mice were prepared using an input of 1 μg or 500 ng genomic DNA, respectively, using a TwinStrand Biosciences, Inc. Mouse Mutagenesis Kit according to the manufacturer's protocol. This kit uses probes that hybridize to 20 genomic regions, each 2.4 kb long. The genomic coordinates are provided in Supplementary Table S1. These probes were purposely selected to map in intronic and intergenic regions, to avoid selection bias. The libraries were sequenced on an Illumina NovaSeq 6000 DNA sequencer on an S4 flow cell using a 150 bp paired-end protocol (MIT BioMicro Center).
# For each sample, the two fastq files generated by the Illumina sequencer were converted into an unaligned bam file, using Picard Tools. The resulting bam file was processed using UnifiedConsensusMaker.py (version 3.0) as available from the Kennedy Lab at University of Washington (https://github.com/Kennedy-Lab-UW/Duplex-Sequencing). […]
Compound,dominant mutation type of mutational spectrum [1],sequence context of mutations [2],predominant mutation type of mutational spectrum [2],cosine similarity of mutational spectra [2]
"CN(N=O)C(N)=O [MNU, N-methyl-N-nitrosourea]",AT→GC mutations,5’-PuGN-3’,GC→AT mutations,> 0.9
"CN(N=O)C(=O)NC1C(O)OC(CO)C(O)C1O (centres unmarked) [STZ, streptozotocin]",,5’-PuGN-3’,GC→AT mutations,> 0.9
"Cn1nnc2c(C(N)=O)ncn2c1=O [TMZ, temozolomide]",AT→GC mutations,5’-PuGN-3’,GC→AT mutations,> 0.9
